Laboratory results published in patent US6579881B2 (Eisai Co., Ltd., priority 1997, dated 2003).
Counter-ions that a name gives are not always drawn.

What was measured:
α1 adrenalin receptor = assay: Binding test on [3H] prazosin (α1 adrenalin receptor); set-up: species or system rat; settings: [3H] prazosin about 0.2 nM, receptor fraction of rat cerebral cortex
serotonin 1A receptor = target: T1, serotonin 1A receptor (Rattus norvegicus, UniProt P19327); assay: Binding test on [3H] 8-hydroxy-dipropylaminotetralin (serotonin 1A receptor); settings: [3H] 8-OH-DPAT 0.5 nM, receptor fraction of rat hippocampus; read-out: 5HT1a
T1 construct: To the receptor fraction of the hippocampus were added a test compound and 0.5 nM of [^3H]; 8-hydroxy-dipropylaminotetralin; from tissue; host or cells: SD rat hippocampus, membrane (receptor) fraction
T1 sequence (P19327 1-422): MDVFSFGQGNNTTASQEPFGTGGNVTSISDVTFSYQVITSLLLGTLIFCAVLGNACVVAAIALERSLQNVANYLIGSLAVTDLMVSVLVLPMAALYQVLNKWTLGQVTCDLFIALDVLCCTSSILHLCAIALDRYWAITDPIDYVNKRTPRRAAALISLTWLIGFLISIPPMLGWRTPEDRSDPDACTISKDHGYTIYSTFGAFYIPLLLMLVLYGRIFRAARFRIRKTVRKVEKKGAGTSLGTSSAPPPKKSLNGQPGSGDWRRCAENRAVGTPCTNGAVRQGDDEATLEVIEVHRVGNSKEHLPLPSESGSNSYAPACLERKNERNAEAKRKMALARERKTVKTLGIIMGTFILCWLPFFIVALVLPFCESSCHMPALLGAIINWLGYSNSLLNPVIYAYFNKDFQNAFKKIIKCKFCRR

serotonin 2 receptor = serotonin 2 receptor (Rattus norvegicus, UniProt P14842); assay: Binding test on [3H] ketanserin (serotonin 2 receptor); settings: [3H] ketanserin 0.3 nM, receptor fraction of rat cerebral cortex; read-out: 5HT2
Sequence of serotonin 2 receptor (P14842 whole entry): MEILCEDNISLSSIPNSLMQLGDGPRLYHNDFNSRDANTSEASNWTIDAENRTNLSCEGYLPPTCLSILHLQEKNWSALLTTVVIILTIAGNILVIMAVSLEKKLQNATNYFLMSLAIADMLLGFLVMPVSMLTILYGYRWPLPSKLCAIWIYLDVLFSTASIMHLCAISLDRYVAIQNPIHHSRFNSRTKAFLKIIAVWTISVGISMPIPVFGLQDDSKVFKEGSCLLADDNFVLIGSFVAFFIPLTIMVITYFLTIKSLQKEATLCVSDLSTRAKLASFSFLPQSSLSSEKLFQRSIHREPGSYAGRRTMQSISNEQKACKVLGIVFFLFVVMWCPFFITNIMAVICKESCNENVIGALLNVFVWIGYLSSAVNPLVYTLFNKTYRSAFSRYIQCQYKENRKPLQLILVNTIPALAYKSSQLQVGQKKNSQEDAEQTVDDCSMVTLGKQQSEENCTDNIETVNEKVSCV
Protocol: Use was made of SD rats aged 6 to 8 weeks.
The rats were sacrificed by dcapitation to extirpate the cerebra.
The hippocampus was mixed with 50 times (on the wet weight basis) as much a 0.32 M sucrose solution while the cortex was mixed with 10 times as much the same solution. Each mixture was homogenized by using a Teflon glass homogenizer and centrifuged at 1,000×g for 10 min. The supernatant thus obtained was further centrifuged at 20,000×g for 20 min. The obtained precipitate was re-suspended in 50 times (based on the intial wet weight; in the case of the hippocampus) or 10 times (in the case of the cortex) as much a 50 mM Tris hydrochloride (pH 7.4) and incubated at room temperature for 30 min. After centrifuging at 20,000×g for 20 min, the obtained precipitate was further suspended and centrifuged twice each in the same manner. The precipitate thus obtained was suspended in 100 times (based on the initial wet weight; in the case of the hippocampus) or 20 times (in the case of the cortex) as much a 50 mM Tris hydrochloride solution (pH 7.4) to thereby give a receptor fraction. This receptor fraction was stored at −80° C. until using.
(Binding Test on [^3H] Ketanserin)
Next, it was filtered through a glass filter with the use of a cell harvester. After washing the glass filter with 50 mM Tris hydrochloride (pH 7.4), the radioactivity of the receptor was measured with a liquid scintillation counter. The binding detected in the presence of 1 μM of methysergide was referred to as the nonspecific binding.
IC50 was calculated by the probit method, while Ki was determined in accordance with the following formula:
wherein c represents the concentration of the radioisotope-labeled compound, and Kd represents the dissociation constant of the radioisotope-labeled compound with respect to the receptor determined by Scatchard's analysis.

Molecule | Ki (α1 adrenalin receptor) [nM] | Ki (serotonin 1A receptor) [nM] | Ki (serotonin 2 receptor) [nM]
1-[1-(4-fluorophenethyl)piperidin-4-yl]-7-hydroxy-(4a,7a)-cyclohexanoindoline and 1-[1-(4-fluorophenethyl)piperidin-4-yl]-4-hydroxy-(3b,6a)-cyclohexanoindoline [Example 236] | 72.2 | 29.2 | 10.6
Cc1nc2sccn2c(=O)c1CCN1CCC(N2CCc3ccccc32)CC1 [Co. No. 5 given in WO96/23784, 1-{1-[2-(5-oxo-7-methyl-5H-pyrimidino[2,1-b][1,3]thiazol-6-yl)ethyl]piperidin-4-yl}indoline, reference compound] | 16.8 | – | –
Fc1ccc(CCN2CCC(N3CCc4ccccc43)CC2)cc1F [Example 11, 1-[1-(3,4-difluorophenethyl)piperidin-4-yl]indoline] | 147 | 5.7 | 27.9
Fc1ccc(CCCN2CCC(N3CCc4ccccc43)CC2)cc1 [Example 13, 1-[1-(4-fluorophenylpropyl)piperidin-4-yl]indoline] | 188 | 24.2 | > 200
COc1cccc(CCN2CCC(N3CCc4ccccc43)CC2)c1 [Example 19, 1-[1-(3-methoxyphenethyl)piperidin-4-yl]indoline] | 55.5 | 8.8 | 7
OCCOc1ccc(CCN2CCC(N3CCc4ccccc43)CC2)cc1 [Example 26, 1-{1-[4-(2-hydroxyethoxy)phenethyl]piperidin-4-yl}indoline] | 51.1 | 2.9 | 19.5
CS(=O)(=O)NCc1ccc(CCN2CCC(N3CCc4ccccc43)CC2)cc1 [Example 38, 1-[1-(4-methanesulfonylaminomethylphenethyl)piperidin-4-yl]indoline] | 244 | 15 | 21.8
CCN1CCC(N2CCc3ccc(NS(=O)(=O)c4ccc(F)cc4)cc32)CC1 [Example 238, 1-(1-ethylpiperidin-4-yl)-6-(4-fluorobenzenesulfonylamino)indoline] | – | 86.6 | > 200
CCN1CCC(N2CC(c3ccc(F)cc3)c3ccccc32)CC1 (centres unmarked) [Example 240, 1-(1-ethylpiperidin-4-yl)-3-(4-fluorophenyl)indoline] | – | > 200 | 27.6
CCN1CCC(N2CC(c3ccc(OC)cc3)c3ccccc32)CC1 (centres unmarked) [Example 241, 1-(1-ethylpiperidin-4-yl)-3-(4-methoxyphenyl)indoline] | – | 360 | 1660
CCN1CCC(N2CC(Cc3ccc(OC)cc3)c3ccccc32)CC1 (centres unmarked) [Example 242, 1-(1-ethylpiperidin-4-yl)-3-(4-methoxybenzyl)indoline] | – | > 200 | 2.3
CCN1CCC(CN2CC(Cc3ccc(OC)cc3)c3ccccc32)CC1 (centres unmarked) [Example 243, 1-[(1-ethylpiperidin-4-yl)methyl]-3-(4-methoxybenzyl)indoline] | – | > 200 | 53
CCN1CCC(N2CC(Cc3ccc(F)cc3)c3ccccc32)CC1 (centres unmarked) [Example 244, 1-(1-ethylpiperidin-4-yl)-3-(4-fluorobenzyl)indoline] | – | > 200 | 2.5
CCN1CCC(N2CC(Cc3cccnc3)c3ccccc32)CC1 (centres unmarked) [Example 245, 1-(1-ethylpiperidin-4-yl)-3-(3-pyridylmethyl)indoline] | – | > 200 | 11.2
CCN1CCC(N2CC(CCc3cccc(OC)c3)c3ccccc32)CC1 (centres unmarked) [Example 246, 1-(1-ethylpiperidin-4-yl)-3-(3-methoxyphenethyl)indoline] | – | > 200 | 60
CCN1CCC(N2CC(CCc3cccc(F)c3)c3ccccc32)CC1 (centres unmarked) [Example 247, 1-(1-ethylpiperidin-4-yl)-3-(3-fluorophenethyl)indoline] | – | > 200 | 52.9
COc1ccc(CCN2CCC(C3CCc4ccccc43)CC2)cc1 (centres unmarked) [Example 249, 1-[1-(4-methoxyphenethyl)piperidin-4-yl]indan] | – | 2.1 | 20.2
CCN1CCN(C2CCc3ccc(OC)cc32)CC1 (centres unmarked) [Example 251, 1-(4-ethylpiperazin-1-yl)-6-methoxyindan Hydrochloride] | – | 58.5 | > 200
CCN1CCN([C@@H]2c3ccccc3CC2N(C)Cc2ccc(F)cc2)CC1 (some centres unmarked) [Example 254] | – | > 200 | 177
OC1(C2CCc3cccnc32)CCN(CCc2ccc(F)cc2)CC1 (centres unmarked) [Example 255, 7-[4-hydroxy-1-(4-fluorophenethyl)piperidin-4-yl]-5,6-dihydro-7H-pyrindine] | – | > 200 | 15.7

Molecule | Ki (α1 adrenalin receptor) [nM] | Ki (serotonin 1A receptor) [nM] | Ki (serotonin 2 receptor) [nM]
Fc1ccc(CCN2CCC(=C3CCc4cccnc43)CC2)cc1 [Example 256, 7-[1-(4-fluorophenethyl)piperidin-4-ylidene]-5,6-dihydropyrindine] | – | 0.4 | 12.1
Fc1ccc(CCN2CCC(C3CCc4cccnc43)CC2)cc1 (centres unmarked) [Example 257, 7-[1-(4-fluorophenethyl)piperidin-4-yl]-5,6-dihydro-7H-pyrindine] | – | 2.8 | 0.61
Fc1ccc(CCN2CCC(N3CCc4ccc(Cl)nc43)CC2)cc1 [Example 259, 1-[1-(4-fluorophenethyl)piperidin-4-yl]-6-chloro-7-azaindoline] | – | 0.6 | 5.9
Fc1ccc(CCN2CCC(N3CCc4cccnc43)CC2)cc1 [Example 260, 1-[1-(4-fluorophenethyl)piperidin-4-yl]-7-azaindoline] | – | 1.3 | 12.9
Fc1ccc(CCN2CCC(N3CCc4ccc(F)nc43)CC2)cc1 [Example 261, 1-[1-(4-fluorophenethyl)piperidin-4-yl]-6-fluoro-7-azaindoline] | – | 1.5 | 5.3
Fc1ccc(CCN2CCC(N3CCc4ccc(Cl)nc43)CC2)c(F)c1 [Example 262, 1-[1-(2,4-difluorophenethyl)piperidin-4-yl]-6-chloro-7-azaindoline] | – | 1.5 | 2.1
COc1ccc(CCN2CCC(N3CCc4ccc(Cl)nc43)CC2)cc1 [Example 263, 1-[1-(4-methoxyphenethyl)piperidin-4-yl]-6-chloro-7-azaindoline] | – | 0.46 | > 200
Fc1ccc(CCN2CCC(N3CCc4ccncc43)CC2)cc1 [Example 264, 1-[1-(4-fluorophenethyl)piperidin-4-yl]-6-azaindoline] | – | 11.3 | 139
CC1CC(=C2CCN(CCc3ccc(F)cc3)CC2)c2nccnc21 (centres unmarked) [Example 265, 5-[1-(4-fluorophenethyl)piperidin-4-ylidene]-7-methyl-5,6-dihydrocyclopentapyrazine] | – | 25.2 | 34.2
OCCOc1ccc2c(c1)CCCC2C1CCN(CCc2ccc(F)cc2)CC1 (centres unmarked) [Example 278, 1-[2-(4-fluorophenyl)ethyl]-4-[6-(2-hydroxy)ethoxy-1,2,3,4-tetrahydronaphthalen-1-yl]piperidine] | – | > 200 | 3.9
COc1ccc2c(c1)C(N1CCN(CC(=O)c3ccc(F)cc3)CC1)CCC2 (centres unmarked) [Example 281, 1-{4-[2-(4-fluorophenyl)-2-oxoethyl]piperazin-1-yl}-7-methoxy-1,2,3,4-tetrahydronaphthalene Hydrochloride] | – | 35.2 | 11.2
COc1ccc2c(c1)C(N1CCN(CCc3ccc(F)cc3)CC1)CCCC2 (centres unmarked) [Example 282, 1-(4-fluorophenethyl)-4-(2-methoxybenzocycloheptan-9-yl)piperazine] | – | 58.7 | 150
Fc1ccc(CCN2CCC(N3CCc4cc5c(cc43)OCO5)CC2)cc1 [Example 284, 1-[1-(4-fluorophenethyl)piperidin-4-yl]-5,6-methylenedioxyindoline] | – | 4.5 | 4.7
Cn1cccc1-c1ccc2ccn(C3CCN(CCc4ccc(F)cc4)CC3)c2c1 [Example 287, 1-[1-(4-fluorophenethyl)piperidin-4-yl]-6-(1-methylpyrrol-2-yl)indole] | – | 0.1 | > 200
CC(=O)NCc1ccc(CCN2CCC(n3ccc4ccccc43)CC2)cc1 [Example 288, 1-[1-(4-acetamidomethylphenethyl)piperidin-4-yl]indole] | – | 0.2 | 0.1
O=C(Cc1ccc2ccn(C3CCN(CCc4ccc(F)cc4)CC3)c2c1)NCCc1ccccn1 [Example 315, 1-[1-(4-fluorophenethyl)piperidin-4-yl]-6-[2-(pyridin-2-yl)ethyl]carbamoylmethylindole Oxalate] | – | 6.74 | 1.18
Fc1ccc(CCN2CCC(n3ccc4ccccc43)CC2)c(F)n1 [Example 332, 1-[1-(2,6-difluoro-3-pyridylethyl)piperidin-4-yl]indole] | – | 2.24 | 16.2
Fc1ccc(CCN2CCC(n3ccc4ccc(F)cc43)CC2)cc1 [Example 333, 1-[1-(4-fluorophenethyl)piperidin-4-yl]-6-fluoroindole] | – | 1.08 | > 20
CC(=O)NCc1ccc2ccn(C3CCN(CCc4ccc(F)cc4F)CC3)c2c1 [Example 357, 1-[1-(2,4-difluorophenethyl)piperidin-4-yl]-6-acetamidomethylindole] | – | 0.38 | 1.3
